The record followed here is patent EP0168350B1, “Certain ring-fused pyrazolo [3,4-d]-pyridin-3-one derivatives” (CIBA-GEIGY AG, priority 1984, dated 1986).

Where a name gives a salt, the structure may show the parent alone.

One test concerns the target benzodiazepine receptor. As to the kind of experiment: in vitro benzodiazepine receptor binding assay (displacement of tritiated flunitrazepam). The following applies: concentration inhibiting specific binding of 0.5 nM tritiated flunitrazepam by 50 %; synaptosomal membranes from rat fore-brain, pH 7.5. The method, then:
The benzodiazepine receptor binding properties indicate of the nervous system regulatory activity of said new compounds are determined in the receptor binding assay in vitro, e.g. similarly to that in Nature 266, 732 ( 977) or Proc. Nat. Acad. Sci. USA 74, 3805 (1977). When tritiated flunitrazepam is used, the interaction of other drugs with said receptor can be readily assessed thus; Synaptosnal membranes from rat fore-brain are incubated at 0-5 for 30 minutes with 0.5 nM tritiated flunitrazepam and various concentrations of the test substance in a buffer medium maintained at pH 7.5. Solutions of the various concentrations of test substance are prepared by dilution of a […] stock solution in dimethylacetamide-ethanol (1:10) with 50 mM pH 7.5 Tris-HCI buffer. The membranes, containing the receptors with various amounts of tritiated flunitrazepam, are filtered onto glass fiber filters, which are then analyzed in a liquid scintillation counter. The concentration of the compounds of this invention, required to inhibit the specific binding of 0.5 nM of tritiated flunitrazepam by 50 %, the ICso, is determined graphically.

The next test has as its system male Wistar rats. As to the kind of experiment: Cook-Davidson conflict procedure for antianxiety effects. The class given is in vivo, rat. The following applies: dose of about 10 mg/kg p.o. The source says:
Anxiolytic effects are observed, for example, according to the Cook-Davidson conflict procedure, using male Wistar rats which are maintained at 80 % of normal body weight by dietary-, but not water-restriction. They are trained to press a lever within a conditioning chamber, also containing a liquid dipper, a house light, a speaker and a grid-floor. Both lever and grid are connected to an electrical shock source and the chamber is situated in a sound-attenuated room in which a white noise-source is activated during testing, in order to mask any extraneous auditory cues. Each session of 47 minutes duration consists of two alternating schedules. The first is a Variable Interval (VI) schedule of 30 seconds, lasting for 5 minutes, during which a sweetened, condensed milk reinforcement is delivered following the first lever-press after an average of 30 seconds have elapsed, and a drug-induced decrement of this performance is taken as an indication of a neurological deficit. Immediately following the VI-schedule both a 1000 Hz tone and a light-cue are activated, indicating the commencement of the second Fixed Ration (FR) schedule, lasting for 2 minutes, wherein the milk reinforcement is delivered concomitant with an electric foot shock immediately following the tenth response, thereby establishing a conflict situation. The intensity of said shock ranges between 2.0 and 3.6 mA, varying with each animal, in order to adjust them to about 25-100 responses during this schedule over the entire session. A drug-induced enhancement of performance during the FR-schedule is taken as indication of antianxiety effects. This increased performance is measured by the increased number of electric shocks taken during six FR sessions lasting 2 minutes each.

In turn, `O=c1c2c[nH]c3c(c-2nn1-c1ccccc1)CCC3` [Example 7b, 2-phenyl-2,3,5,6,7,8-hexahydrocyclopenta[b]pyrazolo[3,4-d]pyridin-3-one] yielded an IC50 at benzodiazepine receptor of around 1.5 nM.

`O=c1c2c[nH]c3c(c-2nn1-c1ccc(Cl)cc1)COCC3` [Example 4a, 2-p-chlorophenyl-2,3,5,6,7,9-hexahydropyrano[4,3-b]pyrazolo[3,4-d]pyridin-3-one]: the “active in the Cook-Davidson test for antianxiety effects” value (“active in the Cook-Davidson test” for short) in the test with male Wistar rats is given as “active”. Further, the concentration for half-maximal inhibition (IC50) at benzodiazepine receptor was around 0.9 nM.

At benzodiazepine receptor, `O=c1c2c[nH]c3c(c-2nn1-c1ccc(Cl)cc1)CCC3` [Example 7a, 2-p-chlorophenyl-2,3,5,6,7,8-hexahydrocyclopenta[b]pyrazolo[3,4-d]pyridin-3-one] came in with an IC50 of around 0.5 nM.

As for `O=c1c2c[nH]c3c(c-2nn1-c1ccc(Cl)cc1)CSCC3` [Example 3a, 2-p-chlorophenyl-2,3,5,6,7,9-hexahydrothiopyrano[4,3-b]pyrazolo[3,4-d]pyridine-3-one], the concentration for half-maximal inhibition (IC50) at benzodiazepine receptor was around 0.35 nM.

As for `Cl.O=c1c2c[nH]c3c(c-2nn1-c1ccc(Cl)cc1)CCCC3` [Example 8a, 2-p-chlorophenyl-2,3,6,7,8,9-hexahydropyrazolo[4,3-c]quinolin-3(5H)-one hydrochloride], the “active in the Cook-Davidson test” value in the test with male Wistar rats is reported as “active”. The IC50 at benzodiazepine receptor is around 3.5 nM.

The molecule `COc1ccc(-n2nc3c4c([nH]cc-3c2=O)CCCC4)cc1` [Example 12c, 2-(4-methoxyphenyl)-2,3,6,7,8,9-hexahydropyrazolo[4,3-c]quinolin-3(5H)-one] registered an IC50 on benzodiazepine receptor of around 0.6 nM.

As to `O=c1c2c[nH]c3c(c-2nn1-c1ccc(Cl)cc1)CCCCC3` [Example 9a, 2-p-chlorophenyl-2,3,5,6,7,8,9,10-ocathydrocyclohepta[b]pyrazolo[3,4-d]pyridin-3-one hydrochloride], the “active in the Cook-Davidson test” value in the test on male Wistar rats is reported as “active”. On benzodiazepine receptor, this molecule had a 50% inhibitory concentration (IC50) of around 0.8 nM.

For `CC1CCc2[nH]cc3c(=O)n(-c4ccc(Cl)cc4)nc-3c2C1.Cl` (stereo not shown) [Example 8e, 2-p-chlorophenyl-2,3,6,7,8,9-hexahydro-8-methylpyrazolo[4,3-c]-quinolin-3(5H)-one hydrochloride], the “active in the Cook-Davidson test” value in the test on male Wistar rats was “active”. The same molecule showed an IC50 at benzodiazepine receptor of around 1 nM.

`O=C(Nc1ccccn1)c1cnc2c(c1O)CSCC2` [5H-7,8-dihydro-4-hydroxy-3-(N-2-pyridylcarbamoyl)thiopyrano[4,3-b]pyridine] displayed a 50% inhibitory concentration (IC50) on benzodiazepine receptor of around 8 nM.

What is called IC50 is the concentration that gives 50% inhibition.
